Results on 9 molecules are retold here after patent publication US20170107207A1, “AMINOPYRAZOLONE DERIVATIVE” (DAIICHI SANKYO COMPANY, LIMITED, priority 2014, published 2017).

Assay [1] relates to human lymphoma cell line RAMOS cells. Put plainly: Cell growth inhibition test using RAMOS cell, ATP assay (CellTiter-Glo). Type of assay: cell-based. The conditions noted are these: Homo sapiens, Ramos, 72 h, cultured 3 days, 50% growth inhibition concentration. The gist of the method:
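RAMOS cells seeded at 4000 cells/well with compound and cultured 3 days at 37° C, 5% CO2; viability by CellTiter-Glo luminescence. Growth rate T/C % = 100×[(B−C)/(A−C)] using day-0 and final readings; GI50 interpolated from the two concentrations bracketing 50% growth.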

In assay [2] the target is T1, TIP48/TIP49 complex (Homo sapiens, UniProt Q9Y230+Q9Y265).
T1 construct: made in house; host or cells: E. coli
T1 sequence (Q9Y230 whole entry): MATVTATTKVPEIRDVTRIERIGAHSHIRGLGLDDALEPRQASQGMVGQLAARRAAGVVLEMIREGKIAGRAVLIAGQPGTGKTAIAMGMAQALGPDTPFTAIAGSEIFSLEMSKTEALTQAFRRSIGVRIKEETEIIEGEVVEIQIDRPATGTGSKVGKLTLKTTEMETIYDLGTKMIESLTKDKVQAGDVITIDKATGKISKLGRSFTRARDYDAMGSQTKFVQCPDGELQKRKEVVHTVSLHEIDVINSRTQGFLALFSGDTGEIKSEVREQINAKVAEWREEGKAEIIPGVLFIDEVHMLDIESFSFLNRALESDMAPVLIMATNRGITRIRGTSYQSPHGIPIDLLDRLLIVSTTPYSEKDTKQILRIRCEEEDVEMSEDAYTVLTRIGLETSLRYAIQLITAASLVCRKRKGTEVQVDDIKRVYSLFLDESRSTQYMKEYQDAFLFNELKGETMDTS
T1 sequence (Q9Y265 whole entry): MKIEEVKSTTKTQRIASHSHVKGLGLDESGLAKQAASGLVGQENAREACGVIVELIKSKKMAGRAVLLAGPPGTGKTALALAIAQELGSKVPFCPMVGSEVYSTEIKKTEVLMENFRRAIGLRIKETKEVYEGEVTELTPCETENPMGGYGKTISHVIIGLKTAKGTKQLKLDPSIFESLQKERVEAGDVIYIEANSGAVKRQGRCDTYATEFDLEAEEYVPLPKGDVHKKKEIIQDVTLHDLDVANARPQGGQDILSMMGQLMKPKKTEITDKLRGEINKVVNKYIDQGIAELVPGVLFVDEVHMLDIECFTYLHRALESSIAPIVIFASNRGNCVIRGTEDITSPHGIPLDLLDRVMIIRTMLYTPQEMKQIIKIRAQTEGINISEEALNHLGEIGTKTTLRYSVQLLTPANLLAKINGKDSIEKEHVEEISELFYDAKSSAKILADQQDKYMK
Kind of assay: ATPase assay of TIP48/TIP49 complex (ADP-Glo). In kind it is biochemical. The conditions noted are these: concentration at which the ATPase activity was inhibited by 50%. The gist of the method: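 Compound was tested over 10 four-fold concentrations, 200 μM down to 0.0007 μM at 2% DMSO, against E. coli-derived human rTIP48/rTIP49 for 1.5 h at room temperature, pH 7.5 with ATP. ATP hydrolysis was read as ADP-Glo luminescence, normalised to complex-only and no-complex wells, then fitted to dose-response curves.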
(In general: ADP-Glo turns the ADP formed in a reaction into a luminescent signal.)

Molecules are shown by their SMILES.

The term GI50 denotes the concentration at which growth is held to half of that of the control. A high value points to less potent growth inhibition. As a reminder, the IC50 is the concentration needed to halve the response being measured. High values mean lower potency, low ones higher potency. Consider `Cc1cc2cc(Cl)cc(C(=O)NCC(C)(C)CC(=O)Nc3c(CCN(C)C)n(C)n(-c4ccccc4F)c3=O)c2o1` [Example 46, 5-Chloro-N-[4-({3-[2-(dimethylamino)ethyl]-1-(2-fluorophenyl)-2-methyl-5-oxo-1,5-dihydro-1H-pyrazol-4-yl}amino)-2,2-dimethyl-4-oxobutyl]-2-methylbenzofuran-7-carboxamide], for which the GI50 in assay [1] amounted to 470 nM. Further, in assay [2], the IC50 was 81 nM.
As for `Cc1cc2cc(Cl)cc(C(=O)NCC(C)(C)CC(=O)Nc3c(CCCCN(C)C)n(C)n(-c4ccccc4)c3=O)c2o1` [Example 90, 5-Chloro-N-[4-({5-[4-(dimethylamino)butyl]-1-methyl-3-oxo-2-phenyl-2,3-dihydro-1H-pyrazol-4-yl}amino)-2,2-dimethyl-4-oxobutyl]-2-methylbenzofuran-7-carboxamide], the concentration for 50% growth inhibition (GI50) in assay [1] is 140 nM. The IC50 in assay [2] was 28 nM.
The molecule `CCOc1cc(F)c(Cl)cc1C(=O)NCC(C)(C)CC(=O)Nc1c(CCCCN(C)C)n(C)n(-c2ccccc2)c1=O` [Example 89, 5-Chloro-N-[4-({5-[4-(dimethylamino)butyl]-1-methyl-3-oxo-2-phenyl-2,3-dihydro-1H-pyrazol-4-yl}amino)-2,2-dimethyl-4-oxobutyl]-2-ethoxy-4-fluorobenzamide] yielded a concentration for 50% growth inhibition (GI50) in assay [1] of 170 nM. Further, half-maximal inhibition in assay [2] (IC50) was put at 90 nM.
The corresponding values for `COCc1cc2cc(Cl)cc(C(=O)NCC(C)(C)CC(=O)Nc3c(CCN(C)C)n(C)n(-c4ccccc4)c3=O)c2o1` [Example 15, 5-Chloro-N-[4-({5-[2-(dimethylamino)ethyl]-1-methyl-3-oxo-2-phenyl-2,3-dihydro-1H-pyrazol-4-yl}amino)-2,2-dimethyl-4-oxobutyl]-2-(methoxymethyl)benzofuran-7-carboxamide] are 570 nM and 76 nM.
In assay [1], `CCOc1cc(F)c(Cl)cc1C(=O)NCC(C)(C)CC(=O)Nc1c(CCNC)n(C)n(-c2ccccc2)c1=O` [Example 34, 5-Chloro-N-[2,2-dimethyl-4-({1-methyl-5-[2-(methylamino)ethyl]-3-oxo-2-phenyl-2,3-dihydro-1H-pyrazol-4-yl}amino)-4-oxobutyl]-2-ethoxy-4-fluorobenzamide] gave a 50% growth inhibitory concentration (GI50) of 470 nM. The same molecule had a 50% inhibitory concentration (IC50) in assay [2] of 56 nM.
In assay [1], `CCOc1ncc(Cl)cc1C(=O)NCC(C)(C)CC(=O)Nc1c(C(C)CNC)n(C)n(-c2ccccc2)c1=O` (stereo not drawn) [Example 77, 5-Chloro-N-[2,2-dimethyl-4-({1-methyl-5-[1-methyl-2-(methylamino)ethyl]-3-oxo-2-phenyl-2,3-dihydro-1H-pyrazol-4-yl}amino)-4-oxobutyl]-2-ethoxypyridine-3-carboxamide] had a GI50 of 800 nM. In assay [2], this molecule had an IC50 of 92 nM.
In turn, `CCOc1ccc(Cl)cc1C(=O)NCC(C)(C)CC(=O)Nc1c(CC(C)(C)NC)n(C)n(-c2ccccc2)c1=O` [Example 59, 5-Chloro-N-[2,2-dimethyl-4-({1-methyl-5-[2-methyl-2-(methylamino)propyl]-3-oxo-2-phenyl-2,3-dihydro-1H-pyrazol-4-yl}amino)-4-oxobutyl]-2-ethoxybenzamide] gave a 50% growth inhibitory concentration (GI50) in assay [1] of 150 nM. In assay [2], this molecule yielded an IC50 of 34 nM.
Regarding `CN(C)CCc1c(NC(=O)CC(C)(C)CNC(=O)c2cc(Cl)cc3c2OCCO3)c(=O)n(-c2ccccc2)n1C` [Example 16, 7-Chloro-N-[4-({5-[2-(dimethylamino)ethyl]-1-methyl-3-oxo-2-phenyl-2,3-dihydro-1H-pyrazol-4-yl}amino)-2,2-dimethyl-4-oxobutyl]-2,3-dihydro-1,4-benzodioxine-5-carboxamide], the GI50 in assay [1] came out at 570 nM. Also, the half-maximal inhibitory concentration (IC50) in assay [2] stood at 68 nM.
`CCOc1ccc(Cl)cc1C(=O)NCC(C)(C)CC(=O)Nc1c(C(C)CNC)n(C)n(-c2ccccc2)c1=O` (stereo not drawn) [Example 76, 5-Chloro-N-[2,2-dimethyl-4-({1-methyl-5-[1-methyl-2-(methylamino)ethyl]-3-oxo-2-phenyl-2,3-dihydro-1H-pyrazol-4-yl}amino)-4-oxobutyl]-2-ethoxybenzamide] had a GI50 in assay [1] of 590 nM. Half-maximal inhibition in assay [2] (IC50) required 68 nM.
